Source: ChEMBL document CHEMBL1201862, “PubChem BioAssay data set” (2004)
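Following 48 hours of exposure in 96-well plates, responses at five concentrations were used to interpolate endpoints linearly. GI50 marks 50% less growth.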 Calls of active or inactive are those of the source. Cut-off read from the data, not from the text of the source: active = GI50 up to about 1.1 µM and inactive = higher.

Assays:
Assay in all cases: growth of human tumour cells (NCI), 48 h
[1] = test system: HCT-116
[2] = test system: NCI/ADR-RES
[3] = test system: OVCAR-5
[4] = test system: MOLT-4
[5] = test system: PC-3
[6] = test system: SK-MEL-5
[7] = test system: Hs-578T
[8] = test system: Malme-3M
[9] = test system: SF-539
[10] = test system: CAKI-1
[11] = test system: BT-549
[12] = test system: SNB-19
[13] = test system: SN12C
[14] = test system: KM12
[15] = test system: UACC-257
[16] = test system: RPMI-8226
[17] = test system: SR
[18] = test system: U-251
[19] = test system: UACC-62
[20] = test system: HCC 2998

Structure (SMILES) | GI50 [1] | GI50 [2] | GI50 [3] | GI50 [4] | GI50 [5] | GI50 [6] | GI50 [7] | GI50 [8] | GI50 [9] | GI50 [10] | GI50 [11] | GI50 [12] | GI50 [13] | GI50 [14] | GI50 [15] | GI50 [16] | GI50 [17] | GI50 [18] | GI50 [19] | GI50 [20]
COc1ccc(C(=O)NCCN(C)C)c2nc3ccccc3cc12 | 0.561 µM (active) | 1.67 µM (inactive) | 0.163 µM (active) | 0.0411 µM (active) | 1.38 µM (inactive) | 1.23 µM (inactive) | 1.4 µM (inactive) | 0.841 µM (active) | 1.31 µM (inactive) | 0.241 µM (active) | 3.18 µM (inactive) | 0.741 µM (active) | 0.386 µM (active) | 1.34 µM (inactive) | 1.58 µM (inactive) | 0.354 µM (active) | 0.0551 µM (active) | 0.64 µM (active) | 0.729 µM (active) | 2.04 µM (inactive)
CCN(CC)c1ccc2cc(-c3csc(-c4ccc(N(C)C)cc4)n3)c(=O)oc2c1 | > 100 µM (inactive) | > 100 µM (inactive) | > 100 µM (inactive) | > 100 µM (inactive) | > 100 µM (inactive) | > 100 µM (inactive) | > 100 µM (inactive) | > 100 µM (inactive) | > 100 µM (inactive) | > 100 µM (inactive) | > 100 µM (inactive) | > 100 µM (inactive) | > 100 µM (inactive) | 67.9 µM (inactive) | > 100 µM (inactive) | > 100 µM (inactive) | > 100 µM (inactive) | > 100 µM (inactive) | > 100 µM (inactive) | > 100 µM (inactive)
COc1ccc(/C(=N\Nc2ccccn2)c2ccccn2)cc1 | < 0.01 µM (active) | < 0.01 µM (active) | 2.54 µM (inactive) | < 0.01 µM (active) | 0.0306 µM (active) | 0.0303 µM (active) | 0.625 µM (active) | < 0.01 µM (active) | 0.0627 µM (active) | < 0.01 µM (active) | 0.818 µM (active) | 0.544 µM (active) | < 0.01 µM (active) | 0.16 µM (active) | < 0.01 µM (active) | < 0.0268 µM (active) | 0.0547 µM (active) | < 0.0178 µM (active) | 0.104 µM (active) | 2.93 µM (inactive)
O=c1c(F)cn(Cc2c(Cl)cccc2Cl)c(=O)n1Cc1c(Cl)cccc1Cl | 23.8 µM (inactive) | > 31.6 µM (inactive) | > 31.6 µM (inactive) | 25.6 µM (inactive) | 17.3 µM (inactive) | 18.1 µM (inactive) | > 31.6 µM (inactive) | > 31.6 µM (inactive) | > 31.6 µM (inactive) | > 21.5 µM (inactive) | > 31.6 µM (inactive) | > 100 µM (inactive) | > 31.6 µM (inactive) | > 31.6 µM (inactive) | > 31.6 µM (inactive) | > 31.6 µM (inactive) | 19.4 µM (inactive) | > 31.6 µM (inactive) | 26 µM (inactive) | > 31.6 µM (inactive)
C1CCN2CC3CCCN4CCCC(C2C1)C34 (stereo not given) | > 100 µM (inactive) | > 100 µM (inactive) | > 100 µM (inactive) | > 100 µM (inactive) | > 100 µM (inactive) | > 100 µM (inactive) | > 100 µM (inactive) | > 100 µM (inactive) | > 100 µM (inactive) | > 100 µM (inactive) | > 100 µM (inactive) | > 100 µM (inactive) | > 100 µM (inactive) | > 100 µM (inactive) | > 100 µM (inactive) | > 100 µM (inactive) | > 100 µM (inactive) | > 100 µM (inactive) | > 100 µM (inactive) | > 100 µM (inactive)
C[C@]1(O)CC(=O)c2c(c(-c3ccc4cc5c(c(O)c4c3O)C(=O)C[C@@](C)(O)C5)c3cccc(O)c3c2O)C1 | 3.48 µM (inactive) | 5.15 µM (inactive) | 9.46 µM (inactive) | 9.44 µM (inactive) | 3.08 µM (inactive) | 3.66 µM (inactive) | 4.06 µM (inactive) | 6.35 µM (inactive) | 2.75 µM (inactive) | 5.14 µM (inactive) | 5.89 µM (inactive) | 6.52 µM (inactive) | 6.22 µM (inactive) | 3.31 µM (inactive) | 7.36 µM (inactive) | 4.67 µM (inactive) | 5.56 µM (inactive) | 4.02 µM (inactive) | 5.64 µM (inactive) | 4.58 µM (inactive)
O=c1nc(N2CCN(c3ccccc3)CC2)ccn1C1OC(CO)C(O)C1O (stereo not given) | 56 µM (inactive) | > 100 µM (inactive) | > 100 µM (inactive) | 49.7 µM (inactive) | 74.5 µM (inactive) | 42.6 µM (inactive) | > 100 µM (inactive) | > 100 µM (inactive) | > 100 µM (inactive) | > 100 µM (inactive) | 53.2 µM (inactive) | > 100 µM (inactive) | > 100 µM (inactive) | 38.1 µM (inactive) | 45.1 µM (inactive) | 36.9 µM (inactive) | 28.4 µM (inactive) | 52.2 µM (inactive) | 59.7 µM (inactive) | 35.9 µM (inactive)
C1CSC2=C(S1)SC1=C(S2)SC(=C2SC3=C(SC4=C(SCCS4)S3)S2)S1 | > 100 µM (inactive) | > 100 µM (inactive) | > 100 µM (inactive) | > 100 µM (inactive) | > 100 µM (inactive) | > 100 µM (inactive) | > 100 µM (inactive) | > 100 µM (inactive) | > 100 µM (inactive) | > 100 µM (inactive) | > 100 µM (inactive) | > 100 µM (inactive) | > 100 µM (inactive) | > 100 µM (inactive) | > 100 µM (inactive) | > 100 µM (inactive) | 87.7 µM (inactive) | > 100 µM (inactive) | > 100 µM (inactive) | > 100 µM (inactive)
NCCCCCCn1c(-c2ccc(Br)cc2)cs/c1=N\c1ccccc1 | 4.09 µM (inactive) | 12.2 µM (inactive) | 12.2 µM (inactive) | 3.83 µM (inactive) | 5.86 µM (inactive) | 10.1 µM (inactive) | 13.1 µM (inactive) | 9.35 µM (inactive) | 13.1 µM (inactive) | 14.6 µM (inactive) | 13.8 µM (inactive) | 14.9 µM (inactive) | 13.7 µM (inactive) | 5.74 µM (inactive) | 15.2 µM (inactive) | 3.33 µM (inactive) | 3.51 µM (inactive) | 7.89 µM (inactive) | 17.4 µM (inactive) | 3.75 µM (inactive)
Clc1ccc(OCC2NC3C=CC32)cn1 (stereo not given) | > 100 µM (inactive) | > 100 µM (inactive) | > 100 µM (inactive) | 56 µM (inactive) | > 100 µM (inactive) | > 100 µM (inactive) | > 100 µM (inactive) | > 100 µM (inactive) | > 100 µM (inactive) | > 100 µM (inactive) | > 100 µM (inactive) | > 100 µM (inactive) | > 100 µM (inactive) | > 100 µM (inactive) | > 100 µM (inactive) | 34.4 µM (inactive) | 39.8 µM (inactive) | > 100 µM (inactive) | > 100 µM (inactive) | > 100 µM (inactive)
Cc1cc(N(CCC#N)CCC#N)ccc1/C=C(\NC(=O)/C=C/c1ccccc1)C(=O)NN | 99.1 µM (inactive) | > 100 µM (inactive) | > 100 µM (inactive) | > 100 µM (inactive) | > 100 µM (inactive) | > 79.6 µM (inactive) | 31.3 µM (inactive) | > 100 µM (inactive) | 39.1 µM (inactive) | > 100 µM (inactive) | 25.6 µM (inactive) | > 40.9 µM (inactive) | > 100 µM (inactive) | > 100 µM (inactive) | > 100 µM (inactive) | > 100 µM (inactive) | > 100 µM (inactive) | 26 µM (inactive) | > 91 µM (inactive) | > 100 µM (inactive)
CN(C)CCNC(=O)c1nc([N+](=O)[O-])cn1C | > 100 µM (inactive) | > 100 µM (inactive) | > 100 µM (inactive) | > 100 µM (inactive) | > 100 µM (inactive) | > 100 µM (inactive) | > 100 µM (inactive) | > 100 µM (inactive) | > 100 µM (inactive) | > 100 µM (inactive) | > 100 µM (inactive) | > 100 µM (inactive) | > 100 µM (inactive) | > 100 µM (inactive) | > 100 µM (inactive) | > 100 µM (inactive) | > 100 µM (inactive) | > 100 µM (inactive) | > 100 µM (inactive) | > 100 µM (inactive)
COc1ccc2oc(S(=O)(=O)N3CC(CCl)c4ccc([N+](=O)[O-])cc43)cc2c1 (stereo not given) | 0.0908 µM (active) | 0.0596 µM (active) | 0.832 µM (active) | 0.223 µM (active) | 0.116 µM (active) | 0.0752 µM (active) | 0.0454 µM (active) | 0.767 µM (active) | 0.0607 µM (active) | 0.0388 µM (active) | 0.351 µM (active) | 0.233 µM (active) | 0.179 µM (active) | 0.0465 µM (active) | 0.073 µM (active) | 0.107 µM (active) | 0.0521 µM (active) | 0.0955 µM (active) | 0.055 µM (active) | 0.256 µM (active)
O=C1C=CC(=O)N1c1ccc(I)cc1 | 15.6 µM (inactive) | 29.9 µM (inactive) | 23.6 µM (inactive) | 2.56 µM (inactive) | 18.3 µM (inactive) | 18.6 µM (inactive) | 23.4 µM (inactive) | 17.9 µM (inactive) | 22.5 µM (inactive) | 17.5 µM (inactive) | 19 µM (inactive) | > 44.8 µM (inactive) | 20.6 µM (inactive) | 21.4 µM (inactive) | 18 µM (inactive) | 6.11 µM (inactive) | 5.77 µM (inactive) | 23.6 µM (inactive) | 17.5 µM (inactive) | 19.1 µM (inactive)
